# Data taken from paper PMC10661859 (Science signaling, 2023).
# Structures can show the parent of a compound that is named as a salt.
# Target: T1, His-PtcC (Ptc C-terminal tail) (Drosophila melanogaster, UniProt P18502)
# T1 sequence (P18502 1105-1286): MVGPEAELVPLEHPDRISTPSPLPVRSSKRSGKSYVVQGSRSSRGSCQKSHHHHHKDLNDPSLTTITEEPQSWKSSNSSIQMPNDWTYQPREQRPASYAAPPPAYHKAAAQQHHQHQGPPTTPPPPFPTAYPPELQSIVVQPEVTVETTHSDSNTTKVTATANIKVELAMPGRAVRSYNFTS
# Assay: solid-phase lipid dot blot
# Type: binding
# Conditions: 2 ul of 50 uM lipid on PVDF; 1 ug/ml protein in PBS; 4 C overnight
smiles,measurement,value
"CCCCCCCCCCCCCCCCCC(=O)OC[C@H](COP(=O)(O)O)OC(=O)CCCCCCCCCCCCCCCCC [DSPA, 1,2-Distearoyl-sn-glycero-3-phosphate (sodium salt)]",solid-phase lipid dot blot,"His-PtcC interacted only with DSPA and DPPA, both of which are saturated forms of PA"
